Source: patent US20230218573A1, “INDOLE COMPOUNDS FOR THE TREATMENT OF NEURODEGENERATIVE DISEASES” (GALYAN BIO, INC., priority 2020, published 2023)
Entries after “also recorded” stand apart in the source; their conditions may differ.

What was measured:
KCNA1 = test: Nanostring gene expression in STHdh 111/111 cells: Kcna; format: cell-based, mouse; settings: treated STHdh 111/111 (Q111-10), 48 h; in comparison to untreated STHdh 111/111
Method: (§1) Gene expression of certain transcripts of interest were measured using Nanostring Technology. […] Some STHdh 7/7 and STHdh 111/111 cell samples were not heat shocked and some wells were treated with Compound 22 at the indicated concentration on for 48 hours (Table 12). Some STHdh 7/7 and STHdh 111/111 cell samples were heat shocked for 3 hours some wells were treated with Compound 22 at the indicated concentration on for 48 hours (Table 13). Cells are washed with PBS, trypsinised, and gathered in a 15 ml falcon tube. After a short spin down for 3 minutes at 300 g, the cell pellet was washed with PBS once, before it was frozen down in liquid nitrogen. RNA was extracted with a standard protocol. The nCounter® Mouse Neuropathology Panel (Nanostring, Seattle) was used for gene expression analysis according to the manufacturer’s protocols.

[1] = system: Htt14A2.6 PC12 cells (mHttex1-GFP); test: mHTT aggregation by filter retardation assay in Htt14A2.6 PC12 cells; format: cell-based; settings: 24 hour treatment, different concentrations
Method: Compounds from the Biacore screening were selected for measurement of aggregation in a cell model Htt14A2.6 PC12. Htt14A2.6 PC12 cells express a GFP- tagged 97Q mHtt exon 1 fusion protein (mHttex1-GFP) in the presence of ponasterone A. Htt14A2.6 PC12 cells were grown in medium containing 5 µM ponasterone A for 20 hours prior to treatment with the compounds. Htt14A2.6 PC12 cells were plated at 50~60% confluency. Compound 22 was tested at a final concentration of 80 nM, 400 nM and 10 µM in cell culture medium for 24 hours. Htt14A2.6 PC12 cells were harvested, rinsed, homogenized in cold phosphate-buffered saline containing protease inhibitor cocktail, and centrifuged at 16000 g for 30 min at 4° C. twice. About 25 µg total protein of each sample was resolved in 8% SDS PAGE, transferred onto PVDF membrane, blotted with an anti-GFP antibody, and visualized by ECL detection. mHTT aggregates were quantified from the cell lysates by filter retardation assay (Wanker, E.E., et al., Methods Enzymol (1999); 309: 375-386).

mHTT = mHTT (Mus musculus, UniProt P42859, DEL28-30/G47A/INS49LLPQPQPP/INS60VA/L56P/P40L); test: Diffuse mHTT levels in heat shocked STHdh 111/111 striatal cells by immunocytochemistry; settings: STHdh 111/111; in comparison to untreated cells
Method: Pre-Treatment of striatal cell line - First the medium was removed and new DMEM (DMEM, high glucose, HEPES, no phenol red) medium, supplemented with 10% fetal bovine serum (FBS), 1% Penicillin-Streptomycin, containing 10 µM compound was added. The cells were incubated at 33° C. for 24 hours.
Heat shock - Cells were heat shocked for 3 hours at 41° C.
Treatment - Medium was removed and new DMEM (DMEM, high glucose, HEPES, no phenol red) medium, supplemented with 1% fetal bovine serum (FBS), 1% Penicillin-Streptomycin, containing 10 µM compound was added. The cells were incubated at 33° C. for 48 hours.
Staining - Cells were permeabilized with 0.3% Triton X-100 in 4° C. PBS (pH 7.4 from ThermoFisher) for 10 minutes. Then the cells were washed two times with 4° C. PBS. Subsequently, cells are blocked with 3% NGS (normal goat serum from Thermo Fisher) in 4° C. PBS for 1 hour. Cells were incubated with primary antibodies in blocking buffer (PBS, 3% NGS, 0.02% NaN3) over night at 4° C. Primary antibodies were mouse antipolyglutamine monoclonal antibody 3B5H10 (Sigma-Aldrich) at 1:250 dilution and Guinea Pig anti-MAP2 polyclonal antibody (Synaptic Systems) at 1:500 dilution. 3B5H10 binds to diffuse mHTT. Diffuse mHTT is a monomeric and small oligomeric mHTT.
Cells were washed 2 times with 4° C. PBS, and then incubated with secondary antibodies at 1:2000 dilution in blocking buffer for 1 hour at room temperature. […] Cells were washed 2 times with 4° C. PBS, and then the nuclei were counterstain with DAPI (ThermoFisher) for 10 min at room temperature in the dark. Cells were washed 2 times with 4° C. PBS, and then 4° C. PBS was added to cells and then images were acquired.
Fluorescence Imaging - Imaging sessions were performed on a confocal microscope system (Carl Zeiss Microscopy) equipped with a dual spinning disk unit (Yokogawa). All components of the imaging system were controlled via the ZEN 2 software suite (Carl Zeiss Microscopy). The laser lines used were 405 nm, 488 nm and 639 nm to excite DAPI or the respective fluorophores. […] Nested t test was performed to calculate the significance amongst repeated measurements using GraphPad Prism software.
ST HDH Q7/7 (CH00097, Coriell Institute) striatal derived cell line from a knock in transgenic mouse containing HTT loci with a humanized Exon 1 containing 7 polyglutamine repeats.
EC 50 value was determined with non-linear regression.

[2] = Microsomal stability in humans; format: in vitro ADME; settings: humans versus mice
[3] = system: R6/2 mice of Huntington's disease; test: Grip strength in R6/2 mice; format: in vivo; settings: 33 mg/kg i.p. QD; 4-12 weeks of age
Method: (§2) Methods - Total of 20 female and male R6/2 mice and 10 female and male wild-type littermate control mice (WT) were used in the study. The mice were genotyped and the R6/2 mice were divided into different treatment groups based on their litter and baseline body weight. The treatment with Vehicle or Compound 22(33 mg/kg; 5 ml/kg, i.p. QD) was started at 4 weeks of age after the baseline behavioral tests (FIG. 10). Body weights were measured at 3 weeks of age and twice a week until the end of the study.
The experimental groups were: • Group 1) 10 wild-type mice (mixed gender) treated with Vehicle (5 ml/kg, i.p., QD) starting at 4 weeks of age • Group 2) 10 R6/2 mice (mixed gender) treated with Vehicle (5 ml/kg, i.p., QD) starting at 4 weeks of age • Group 3) 10 R6/2 mice (mixed gender) treated with Compound 22 (33 mg/kg; 5 ml/kg, i.p. QD) starting at 4 weeks of age […]
Mice were taken to the experimental room and, one at a time, were placed on the grip strength apparatus (San Diego Instruments, San Diego, USA) in such a way that the animal grabbed a small mesh grip with its forepaws. […] Five scores were recorded per animal in consecutive sequence, and the average of three best scores for each animal was used for the results. […]

[4] = Body weight of R6/2 mice under chronic administration; format: in vivo
Method: as §2
(§3) The experimental groups were: • Group 1) 10 wild-type mice (mixed gender) treated with Vehicle (5 ml/kg, i.p., QD) starting at 4 weeks of age • Group 2) 10 R6/2 mice (mixed gender) treated with Vehicle (5 ml/kg, i.p., QD) starting at 4 weeks of age • Group 3) 10 R6/2 mice (mixed gender) treated with Compound 22 (33 mg/kg; 5 ml/kg, i.p. QD) starting at 4 weeks of age
(§4) 44.3.7 - Compound Delivery and Dosing - Treatment with Compound 22 (33 mg/kg; 5 ml/kg, i.p. QD) or Vehicle was started at age week 4 and continued until the 12 weeks of age. The test articles were handled and stored and the dose formulations were prepared according to detailed instructions provided by the Sponsor.
44.3.8 - Body Weight - Body weight was measured starting at 3 weeks of age before treatment onset and two times per week on the same day (on Monday and Friday) until the end of the study.

[5] = system: R6/2 mice of Huntington's disease; test: Rotarod latency in R6/2 mice; format: in vivo; settings: for rotarod performance versus vehicle treated R6/2 mice: 33 mg/kg i.p. QD
Method: as §2, §3, §4
44.3.9.1 - Rotarod - The Rotarod test was perfomed at 4 (pre-treatment baseline), 6, 8 and 10 weeks of age. Each testing day included a training trial of 5 min at 4 RPM on the Rotarod apparatus (AccuScan Instruments, Columbus, USA). 30 minutes later, the animals were tested for 3 consecutive accelerating trials of 6 min with the speed changing from 0 to 40 RPM over 360 seconds and with an inter-trial interval of at least 30 min. The latency to fall from the rod was recorded. Mice remaining on the rod for more than 360 s were removed and their time scored as 360 sec.
10 female R6/2 mice and 10 female wild-type littermate control mice (F1 generation) were bred by Charles River Laboratories, Sulzfeld, Germany by mating (F0 generation) WT males (C57BL/6J; systematically re-infused with pedigreed JAX mice, stock 000664) with ovarian transferred (OT) TG females (JAX, stock 006494). […]

Slc32a1 = test: Nanostring gene expression in STHdh 111/111 cells: Slc32a1; format: cell-based, mouse; settings: treated STHdh 111/111 (Q111-10), 48 h; in comparison to untreated STHdh 111/111
Method: as §1

mHTT, sequence (P42859 with tags, fused parts or gaps DEL28-30/P40L/G47A/INS49LLPQPQPP/L56P/INS60VA): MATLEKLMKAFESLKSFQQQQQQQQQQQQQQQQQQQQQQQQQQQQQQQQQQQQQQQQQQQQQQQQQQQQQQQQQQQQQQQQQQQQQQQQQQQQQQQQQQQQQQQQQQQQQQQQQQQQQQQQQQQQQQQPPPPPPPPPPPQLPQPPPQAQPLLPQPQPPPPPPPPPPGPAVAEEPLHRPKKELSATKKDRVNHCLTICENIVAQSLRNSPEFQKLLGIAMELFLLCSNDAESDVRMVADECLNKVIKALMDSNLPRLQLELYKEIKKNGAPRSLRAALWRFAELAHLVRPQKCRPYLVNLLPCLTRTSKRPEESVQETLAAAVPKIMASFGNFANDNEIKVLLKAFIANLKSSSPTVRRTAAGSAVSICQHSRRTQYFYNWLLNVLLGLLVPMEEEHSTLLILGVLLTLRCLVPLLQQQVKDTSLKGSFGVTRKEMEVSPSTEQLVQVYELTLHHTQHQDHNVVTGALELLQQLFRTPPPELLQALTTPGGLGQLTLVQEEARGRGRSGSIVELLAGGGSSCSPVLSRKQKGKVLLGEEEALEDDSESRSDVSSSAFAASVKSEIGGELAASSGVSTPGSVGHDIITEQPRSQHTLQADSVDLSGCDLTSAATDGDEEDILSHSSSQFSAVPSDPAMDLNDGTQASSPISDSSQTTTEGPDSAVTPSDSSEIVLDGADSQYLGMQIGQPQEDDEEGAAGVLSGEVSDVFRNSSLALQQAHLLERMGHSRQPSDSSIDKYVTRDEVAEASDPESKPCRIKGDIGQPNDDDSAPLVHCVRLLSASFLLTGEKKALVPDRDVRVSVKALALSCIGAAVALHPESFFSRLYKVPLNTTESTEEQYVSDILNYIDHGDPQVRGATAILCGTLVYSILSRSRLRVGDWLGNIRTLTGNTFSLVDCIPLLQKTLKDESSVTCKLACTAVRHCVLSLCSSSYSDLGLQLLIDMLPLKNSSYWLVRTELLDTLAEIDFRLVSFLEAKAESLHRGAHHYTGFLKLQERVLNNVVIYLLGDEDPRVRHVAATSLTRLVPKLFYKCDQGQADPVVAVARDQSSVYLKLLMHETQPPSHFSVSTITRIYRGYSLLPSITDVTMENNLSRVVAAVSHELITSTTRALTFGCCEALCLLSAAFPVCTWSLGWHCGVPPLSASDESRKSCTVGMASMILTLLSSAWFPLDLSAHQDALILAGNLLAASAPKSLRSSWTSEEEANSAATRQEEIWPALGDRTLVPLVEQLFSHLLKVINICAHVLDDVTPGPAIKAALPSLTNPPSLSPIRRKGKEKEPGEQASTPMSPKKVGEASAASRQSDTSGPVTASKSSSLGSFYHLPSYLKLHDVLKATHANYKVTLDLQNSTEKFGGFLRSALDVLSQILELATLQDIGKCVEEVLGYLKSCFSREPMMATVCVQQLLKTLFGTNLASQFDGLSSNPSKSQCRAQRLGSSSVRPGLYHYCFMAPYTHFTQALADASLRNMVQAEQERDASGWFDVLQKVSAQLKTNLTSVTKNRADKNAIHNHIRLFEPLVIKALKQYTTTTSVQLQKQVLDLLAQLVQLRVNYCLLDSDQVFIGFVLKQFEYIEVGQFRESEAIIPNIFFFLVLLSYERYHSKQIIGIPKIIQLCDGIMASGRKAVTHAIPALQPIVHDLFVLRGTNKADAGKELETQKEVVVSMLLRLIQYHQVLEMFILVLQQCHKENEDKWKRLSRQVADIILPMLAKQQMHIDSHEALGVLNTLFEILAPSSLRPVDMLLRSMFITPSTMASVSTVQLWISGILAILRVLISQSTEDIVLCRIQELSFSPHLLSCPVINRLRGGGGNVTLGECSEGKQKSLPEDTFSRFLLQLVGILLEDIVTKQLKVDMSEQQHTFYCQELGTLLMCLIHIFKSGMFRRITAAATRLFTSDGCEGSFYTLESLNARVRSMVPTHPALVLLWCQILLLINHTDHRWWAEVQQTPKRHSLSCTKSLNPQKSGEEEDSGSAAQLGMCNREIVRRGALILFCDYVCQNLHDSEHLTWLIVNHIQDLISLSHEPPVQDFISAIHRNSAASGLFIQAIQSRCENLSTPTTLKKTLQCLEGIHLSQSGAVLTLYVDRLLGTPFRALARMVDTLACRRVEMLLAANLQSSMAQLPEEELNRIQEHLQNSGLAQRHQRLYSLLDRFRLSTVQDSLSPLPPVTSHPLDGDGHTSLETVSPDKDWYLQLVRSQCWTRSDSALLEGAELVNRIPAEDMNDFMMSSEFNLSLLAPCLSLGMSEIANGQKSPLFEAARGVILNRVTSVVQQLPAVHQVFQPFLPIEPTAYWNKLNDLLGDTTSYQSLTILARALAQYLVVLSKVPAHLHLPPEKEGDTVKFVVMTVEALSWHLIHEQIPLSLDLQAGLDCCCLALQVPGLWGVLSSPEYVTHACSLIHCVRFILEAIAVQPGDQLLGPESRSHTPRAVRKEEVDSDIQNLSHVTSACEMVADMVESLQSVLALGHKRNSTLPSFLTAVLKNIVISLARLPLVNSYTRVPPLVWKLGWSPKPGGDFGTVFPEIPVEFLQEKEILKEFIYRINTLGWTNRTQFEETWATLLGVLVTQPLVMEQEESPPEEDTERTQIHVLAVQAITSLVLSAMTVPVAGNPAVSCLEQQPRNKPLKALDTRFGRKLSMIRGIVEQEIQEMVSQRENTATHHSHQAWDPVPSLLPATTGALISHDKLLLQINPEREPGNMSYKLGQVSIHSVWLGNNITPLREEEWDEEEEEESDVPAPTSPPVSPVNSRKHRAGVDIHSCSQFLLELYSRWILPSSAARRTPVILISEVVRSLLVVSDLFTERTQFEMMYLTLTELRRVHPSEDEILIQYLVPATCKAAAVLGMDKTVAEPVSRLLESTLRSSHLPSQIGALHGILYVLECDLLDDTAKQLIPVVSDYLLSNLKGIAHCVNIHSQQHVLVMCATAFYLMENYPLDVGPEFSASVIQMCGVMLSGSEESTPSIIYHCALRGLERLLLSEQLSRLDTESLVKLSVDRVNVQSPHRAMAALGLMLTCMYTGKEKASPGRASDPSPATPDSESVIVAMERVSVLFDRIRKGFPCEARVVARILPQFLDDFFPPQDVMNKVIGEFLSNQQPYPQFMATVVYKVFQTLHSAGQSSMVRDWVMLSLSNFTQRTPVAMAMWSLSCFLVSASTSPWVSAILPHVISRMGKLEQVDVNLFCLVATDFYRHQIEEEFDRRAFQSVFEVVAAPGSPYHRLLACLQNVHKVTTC

In the case of `Cc1[nH]c2ccc(C(=O)NCCN(C(C)C)C(C)C)cc2c1C` [Compound 22], the “Kcna1 expression increased by” value (KCNA1) is reported as 68%, the “reduction of mHTT aggregation (filter retardation)” value [1] is reported as “A reduction of aggregation of Htt14A2.6 PC12 was observed; also recorded: A reduction of mHTT in Htt14A2.6 PC12 cells was observed” and the “Nuclear diffuse mHTT reduced by” value (mHTT) is reported as 32%. For the same molecule, the “microsomal stability in humans in comparison to mice” value [2] was 20 times, the “grip strength versus vehicle treated R6/2 mice” value [3] was “no significant differences” and the “body weight versus vehicle treated R6/2 mice” value ([4]; 33 mg/kg i.p. QD from 4 to 12 weeks of age, pooled genders, females, males) was “no significant differences”. For the same molecule, the “body weight loss versus untreated female R6/2 mice” value ([4]; female R6/2 mice, week 12, 33 mg/kg i.p. QD) was “significantly improved”, the “body weight loss improvement versus untreated male R6/2 mice” value ([4]; male R6/2 mice, week 12, 33 mg/kg i.p. QD) was “not observed” and the “improvement of latency to fall in comparison to untreated model mice” value ([5]; R6/2 mice, 10 weeks of age) was 94%. The “rotarod performance versus vehicle treated R6/2 mice” value ([5]; female R6/2 mice, 10 weeks of age, 33 mg/kg) was “significantly improved rotarod performance; also recorded: almost doubled the latency to fall”, the “rotarod performance versus vehicle treated R6/2 mice” value ([5]; pooled genders or males) was “no significant differences” and the Slc32a1 expression upregulated (Slc32a1) was 12 fold.
